Test results taken from PubChem BioAssay AID1259407 (Chemical Carcinogenesis Research Information System (CCRIS), 2018).
The source made the active and inactive calls. The rule behind the calls is not given here.

Tested on: CCRIS mutagenicity, Ames/micronucleus/aberration tests
Assay: CCRIS mutagenicity studies
[1] = Test System: AMES SALMONELLA TYPHIMURIUM, Strain/Indicator: TA98, Metabolic Activation: NONE, Method: PREINCUBATION
[2] = Test System: AMES SALMONELLA TYPHIMURIUM, Strain/Indicator: TA100, Metabolic Activation: NONE, Method: PREINCUBATION
[3] = Test System: AMES SALMONELLA TYPHIMURIUM, Strain/Indicator: TA98, Metabolic Activation: NONE, Method: STANDARD PLATE
[4] = Test System: AMES SALMONELLA TYPHIMURIUM, Strain/Indicator: TA98, Metabolic Activation: RAT, LIVER, S-9, AROCLOR 1254, Method: STANDARD PLATE
[5] = Test System: AMES SALMONELLA TYPHIMURIUM, Strain/Indicator: TA100, Metabolic Activation: NONE, Method: STANDARD PLATE
[6] = Test System: AMES SALMONELLA TYPHIMURIUM, Strain/Indicator: TA100, Metabolic Activation: RAT, LIVER, S-9, AROCLOR 1254, Method: STANDARD PLATE
[7] = Test System: AMES SALMONELLA TYPHIMURIUM, Strain/Indicator: TA1535, Metabolic Activation: NONE, Method: STANDARD PLATE
[8] = Test System: AMES SALMONELLA TYPHIMURIUM, Strain/Indicator: TA1535, Metabolic Activation: RAT, LIVER, S-9, AROCLOR 1254, Method: STANDARD PLATE
[9] = Test System: AMES SALMONELLA TYPHIMURIUM, Strain/Indicator: TA1537, Metabolic Activation: NONE, Method: STANDARD PLATE
[10] = Test System: AMES SALMONELLA TYPHIMURIUM, Strain/Indicator: TA1537, Metabolic Activation: RAT, LIVER, S-9, AROCLOR 1254, Method: STANDARD PLATE

For NNc1ccccc1[N+](=O)[O-], the mutagenic call [1] was “active; positive”, the mutagenic call (Test System: AMES SALMONELLA TYPHIMURIUM, Strain/Indicator: TA98, Metabolic Activation: RAT, LIVER, S-9, KANECHLOR 500, Method: PREINCUBATION) was “active; positive” and the mutagenic call [2] was “active; positive”.
With CC(=O)O[C@]1(C(C)=O)CC[C@H]2[C@@H]3C4OC4(Cl)C4=CC(=O)[C@@H]5C[C@@H]5[C@]4(C)[C@H]3CC[C@@]21C (stereo not given in full) the mutagenic call [1] was “inactive; negative”, the mutagenic call [3] was “inactive; negative” and the mutagenic call (Test System: AMES SALMONELLA TYPHIMURIUM, Strain/Indicator: TA98, Metabolic Activation: RAT, LIVER, S-9, AROCLOR 1254, Method: PREINCUBATION) was “inactive; negative”. For the same compound, the mutagenic call [4] was “inactive; negative”, the mutagenic call [2] was “inactive; negative” and the mutagenic call [5] was “inactive; negative”. For the same compound, the mutagenic call (Test System: AMES SALMONELLA TYPHIMURIUM, Strain/Indicator: TA100, Metabolic Activation: RAT, LIVER, S-9, AROCLOR 1254, Method: PREINCUBATION) was “inactive; negative”, the mutagenic call [6] was “inactive; negative” and the mutagenic call (Test System: AMES SALMONELLA TYPHIMURIUM, Strain/Indicator: TA1535, Metabolic Activation: NONE, Method: PREINCUBATION) was “inactive; negative”. For the same compound, the mutagenic call [7] was “inactive; negative”, the mutagenic call (Test System: AMES SALMONELLA TYPHIMURIUM, Strain/Indicator: TA1535, Metabolic Activation: RAT, LIVER, S-9, AROCLOR 1254, Method: PREINCUBATION) was “inactive; negative” and the mutagenic call [8] was “inactive; negative”. The mutagenic call (Test System: AMES SALMONELLA TYPHIMURIUM, Strain/Indicator: TA1537, Metabolic Activation: NONE, Method: PREINCUBATION) was “inactive; negative”, the mutagenic call [9] was “inactive; negative” and the mutagenic call (Test System: AMES SALMONELLA TYPHIMURIUM, Strain/Indicator: TA1537, Metabolic Activation: RAT, LIVER, S-9, AROCLOR 1254, Method: PREINCUBATION) was “inactive; negative”. The mutagenic call [10] was “inactive; negative”, the mutagenic call (Test System: AMES SALMONELLA TYPHIMURIUM, Strain/Indicator: TA1538, Metabolic Activation: NONE, Method: PREINCUBATION) was “inactive; negative” and the mutagenic call (Test System: AMES SALMONELLA TYPHIMURIUM, Strain/Indicator: TA1538, Metabolic Activation: NONE, Method: STANDARD PLATE) was “inactive; negative”. The mutagenic call (Test System: AMES SALMONELLA TYPHIMURIUM, Strain/Indicator: TA1538, Metabolic Activation: RAT, LIVER, S-9, AROCLOR 1254, Method: PREINCUBATION) was “inactive; negative” and the mutagenic call (Test System: AMES SALMONELLA TYPHIMURIUM, Strain/Indicator: TA1538, Metabolic Activation: RAT, LIVER, S-9, AROCLOR 1254, Method: STANDARD PLATE) was “inactive; negative”.
For CC(=O)c1ccc[nH]1, the mutagenic call [5] was “inactive; negative” and the mutagenic call [6] was “inactive; negative”.
For CCSC(=O)N(CC)C1CCCCC1, the mutagenic call (End Point: In vitro chromosomal aberrations, Test System: Human lymphocytes, Metabolic Activation: None) was “inactive; negative”, the mutagenic call (End Point: In vitro chromosomal aberrations, Test System: Human lymphocytes, Metabolic Activation: S-9 (No additional details provided in source)) was “inactive; negative” and the mutagenic call (End Point: In vivo micronucleus, Test System: Bone marrow, Species: Mouse, Strain/Sex: CD/Female, Route: Oral) was “inactive; negative”. For the same compound, the mutagenic call (End Point: In vivo micronucleus, Test System: Bone marrow, Species: Mouse, Strain/Sex: CD/Male, Route: Oral) was “inactive; negative”.
CC1(S(=O)(=O)O)CC(=O)c2ccccc2C1=O (stereo not given) (tested in a mixture with another compound) was tested, and the mutagenic call (Test System: AMES SALMONELLA TYPHIMURIUM, Strain/Indicator: TA98, Metabolic Activation: NONE, Method: SPIRAL ASSAY) was “inactive; negative”, the mutagenic call [3] was “inactive; negative” and the mutagenic call (Test System: AMES SALMONELLA TYPHIMURIUM, Strain/Indicator: TA98, Metabolic Activation: RAT, LIVER, S-9, AROCLOR 1254, Method: SPIRAL ASSAY) was “inactive; negative”. For the same compound, the mutagenic call [4] was “active; positive”, the mutagenic call (Test System: AMES SALMONELLA TYPHIMURIUM, Strain/Indicator: TA100, Metabolic Activation: NONE, Method: SPIRAL ASSAY) was “inactive; negative” and the mutagenic call [5] was “inactive; negative”. The mutagenic call (Test System: AMES SALMONELLA TYPHIMURIUM, Strain/Indicator: TA100, Metabolic Activation: RAT, LIVER, S-9, AROCLOR 1254, Method: SPIRAL ASSAY) was “inactive; negative”, the mutagenic call [6] was “inactive; negative” and the mutagenic call (Test System: AMES SALMONELLA TYPHIMURIUM, Strain/Indicator: TA1535, Metabolic Activation: NONE, Method: SPIRAL ASSAY) was “inactive; negative”. The mutagenic call [7] was “inactive; negative”, the mutagenic call (Test System: AMES SALMONELLA TYPHIMURIUM, Strain/Indicator: TA1535, Metabolic Activation: RAT, LIVER, S-9, AROCLOR 1254, Method: SPIRAL ASSAY) was “inactive; negative” and the mutagenic call [8] was “inactive; negative”. For the same compound, the mutagenic call (Test System: AMES SALMONELLA TYPHIMURIUM, Strain/Indicator: TA1537, Metabolic Activation: NONE, Method: SPIRAL ASSAY) was “inactive; negative”, the mutagenic call [9] was “inactive; negative” and the mutagenic call (Test System: AMES SALMONELLA TYPHIMURIUM, Strain/Indicator: TA1537, Metabolic Activation: RAT, LIVER, S-9, AROCLOR 1254, Method: SPIRAL ASSAY) was “inactive; negative”. For the same compound, the mutagenic call [10] was “inactive; negative”.
